Experiments:
weeds [1] = test: Post-emergence test, summary on weeds; assay type: in vivo; conditions: result in words
Description: (§1) Solvent: 5 parts by weight of acetone
(§2) Emulsifier: 1 part by weight of alkylaryl polyglycol ether
(§3) To produce a suitable preparation of active compound, 1 part by weight of active compound is mixed with the stated amount of solvent, the stated amount of emulsifier is added and the concentrate is diluted with water to the desired concentration.
(§4) Test plants having a height of 5-15 cm are sprayed with the preparation of active compound such that the particular amounts of active compound desired are applied per unit area. The concentration of the spray liquor is chosen so that the particular amounts of active compound desired are applied in 1000 l of water/ha.
(§5) After three weeks, the degree of damage to the plants is rated in % damage in comparison with the development of the untreated control.
(§6) 0%=no effect (like untreated control)

Maize [2] = test: Pre-emergence test/greenhouse; assay type: in vivo; conditions: for tolerance by crop plants, such as, for example, maize: pre-emergence test, result in words; for degree of damage to the plants, Maize: pre-emergence, 1000 g of ai./ha, rated after three weeks vs untreated control, 0%=no effect, 100%=total destruction
Description: (§7) Pre-emergence Test Solvent: 5 parts by weight of acetone Emulsifier: 1 part by weight of alkylaryl polyglycol ether To produce a suitable preparation of active compound, 1 part by weight of active compound is mixed with the stated amount of solvent, the stated amount of emulsifier is added and the concentrate is diluted with water to the desired concentration. Seeds of the test plants are sown in normal soil. After about 24 hours, the soil is sprayed with the preparation of active compound such that the particular amounts of active compound desired are applied per unit area. The concentration of the spray liquor is chosen so that the particular amounts of active compound desired are applied in 1000 l of water/ha. After three weeks, the degree of damage to the plants is rated in % damage in comparison with the development of the untreated control. The figures denote: 0%=no effect (like untreated control) 100%=total destruction

weeds [3] = test: Pre-emergence test, summary on weeds; assay type: in vivo; conditions: result in words
Description: as §7

Amaranthus [4] = test: Pre-emergence test/greenhouse; assay type: in vivo; conditions: 1000 g of ai./ha, rated after three weeks vs untreated control, 0%=no effect, 100%=total destruction
Description: as §7

Setaria [5] = test: Pre-emergence test/greenhouse; assay type: in vivo; conditions: 1000 g of ai./ha, rated after three weeks vs untreated control, 0%=no effect, 100%=total destruction
Description: as §7

Galium = test: Pre-emergence test/greenhouse; assay type: in vivo; conditions: 1000 g of ai./ha, rated after three weeks vs untreated control, 0%=no effect, 100%=total destruction
Description: as §7

Sinapis [6] = test: Pre-emergence test/greenhouse; assay type: in vivo; conditions: 1000 g of ai./ha, rated after three weeks vs untreated control, 0%=no effect, 100%=total destruction
Description: as §7

Amaranthus [7] = test: Post-emergence test/greenhouse; assay type: in vivo; conditions: 504 h, 1000 g of ai./ha, plants 5-15 cm sprayed, rated after three weeks vs untreated control, 0%=no effect, 100%=total destruction, read-out: degree of damage to the plants, Amaranthus
Description: as §1, §2, §3, §4, §5, §6

Abutilon = test: Post-emergence test/greenhouse; assay type: in vivo; conditions: 504 h, 1000 g of ai./ha, plants 5-15 cm sprayed, rated after three weeks vs untreated control, 0%=no effect, 100%=total destruction, read-out: degree of damage to the plants, Abutilon
Description: as §1, §2, §3, §4, §5, §6

Sinapis [8] = test: Post-emergence test/greenhouse; assay type: in vivo; conditions: 504 h, 1000 g of ai./ha, plants 5-15 cm sprayed, rated after three weeks vs untreated control, 0%=no effect, 100%=total destruction, read-out: degree of damage to the plants, Sinapis
Description: as §1, §2, §3, §4, §5, §6

Maize [9] = test: Post-emergence test/greenhouse; assay type: in vivo; conditions: Zea mays, 504 h, 1000 g of ai./ha, plants 5-15 cm sprayed, rated after three weeks vs untreated control, 0%=no effect, 100%=total destruction, read-out: degree of damage to the plants, Maize
Description: as §1, §2, §3, §4, §5, §6

Setaria [10] = test: Post-emergence test/greenhouse; assay type: in vivo; conditions: 504 h, 1000 g of ai./ha, plants 5-15 cm sprayed, rated after three weeks vs untreated control, 0%=no effect, 100%=total destruction, read-out: degree of damage to the plants, Setaria
Description: as §1, §2, §3, §4, §5, §6

Xanthium = test: Post-emergence test/greenhouse; assay type: in vivo; conditions: 1000 g of ai./ha, plants 5-15 cm sprayed, rated after three weeks vs untreated control, 0%=no effect, 100%=total destruction
Description: as §1, §2, §3, §4, §5, §6

Row | Compound | action against weeds (weeds [1]) | pest or weed control at 1000 g/ha (Amaranthus [7]) | pest or weed control at 1000 g/ha (Abutilon) | pest or weed control at 1000 g/ha (Sinapis [8]) | plant injury at 1000 g/ha (Maize [9]) | pest or weed control at 1000 g/ha (Setaria [10]) | also measured
1 | CCc1nc(N)nc(NC(C)c2cccs2)n1 (stereo not shown) [Example 1, 2-amino-4-ethyl-6-(1-thien-2-yl-ethylamino)-1,3,5-triazine] | strong action |  |  |  |  |  | 
2 | CCc1nc(NC(C)=O)nc(NC(C)c2cccs2)n1 (stereo not shown) [Example 2, 2-acetylamino-4-ethyl-6-(1-thien-2-yl-ethyl-amino)-1,3,5-triazine] | strong action |  |  |  |  |  | melting point: 153 °C
3 | CC(Nc1nc(N)nc(C(Cl)Cl)n1)c1cccs1 (stereo not shown) [Example 5] | strong action |  |  |  |  |  | melting point: 135 °C
4 | CC(Cl)c1nc(N)nc(NC(C)c2cccs2)n1 (stereo not shown) [Example 6] | strong action |  |  |  |  |  | melting point: 125 °C
5 | CCc1nc(N)nc(NC(CC)c2cccs2)n1 (stereo not shown) [Example 11] | strong action |  |  |  |  |  | 
6 | CCC(Nc1nc(N)nc(C(Cl)Cl)n1)c1cccs1 (stereo not shown) [Example 13] | strong action |  |  |  |  |  | 
7 | CCC(Nc1nc(N)nc(C(C)Cl)n1)c1cccs1 (stereo not shown) [Example 14] | strong action |  |  |  |  |  | 
8 | CCC(Nc1nc(N)nc(C(C)F)n1)c1cccs1 (stereo not shown) [Example 15] | strong action |  |  |  |  |  | tolerance by crop plants, such as, for example, maize (Maize [2]): tolerated very well; action against weeds (weeds [3]): strong action
9 | CCC(Nc1nc(N)nc(C(F)C(F)(F)F)n1)c1cccs1 (stereo not shown) [Example 16] | strong action |  |  |  |  |  | 
10 | CCc1nc(NC(C)=O)nc(NC(CC)c2cccs2)n1 (stereo not shown) [Example 18] | strong action |  |  |  |  |  | 
11 | CCC(Nc1nc(NC(C)=O)nc(C(Cl)Cl)n1)c1cccs1 (stereo not shown) [Example 20] | strong action |  |  |  |  |  | melting point: 131 °C
12 | CCC(Nc1nc(NC(C)=O)nc(C(C)Cl)n1)c1cccs1 (stereo not shown) [Example 21] | strong action |  |  |  |  |  | 
13 | CCC(Nc1nc(NC(C)=O)nc(C(C)F)n1)c1cccs1 (stereo not shown) [Example 22] | strong action |  |  |  |  |  | tolerance by crop plants, such as, for example, maize (Maize [2]): tolerated very well; action against weeds (weeds [3]): strong action
14 | CCC(Nc1nc(NC(C)=O)nc(C(C)(Cl)Cl)n1)c1cccs1 (stereo not shown) [Example 24] | strong action |  |  |  |  |  | melting point: 113 °C
15 | CCC(Nc1nc(N)nc(C(C)F)n1)c1cccs1 (stereo not shown) [drawing 223] |  |  |  |  |  |  | degree of damage to the plants, Amaranthus (Amaranthus [4]): 100%; degree of damage to the plants, Setaria (Setaria [5]): 90%; degree of damage to the plants, Galium (Galium): 100%; degree of damage to the plants, Maize (Maize [2]): 0%
16 | CCC(Nc1nc(NC(C)=O)nc(C(C)F)n1)c1cccs1 (stereo not shown) [drawing 224] |  |  |  |  |  |  | degree of damage to the plants, Amaranthus (Amaranthus [4]): 95%; degree of damage to the plants, Sinapis (Sinapis [6]): 100%; degree of damage to the plants, Setaria (Setaria [5]): 100%; degree of damage to the plants, Galium (Galium): 100%; degree of damage to the plants, Maize (Maize [2]): 0%
17 | CCc1nc(N)nc(NC(C)c2cccs2)n1 (stereo not shown) [drawing 225] |  | 100% | 100% | 100% | 30% |  | 
18 | CCc1nc(NC(C)=O)nc(NC(C)c2cccs2)n1 (stereo not shown) [drawing 226] |  | 100% | 100% | 100% | 0% | 90% | 
19 | CCc1nc(N)nc(NC(CC)c2cccs2)n1 (stereo not shown) [drawing 227] |  | 100% | 100% | 100% | 30% | 100% | 
20 | CCC(Nc1nc(N)nc(C(C)Cl)n1)c1cccs1 (stereo not shown) [drawing 228] |  | 100% | 100% | 100% | 30% | 100% | 
21 | CCC(Nc1nc(N)nc(C(C)F)n1)c1cccs1 (stereo not shown) [drawing 229] |  | 100% | 100% | 100% | 0% | 100% | 
22 | CCC(Nc1nc(N)nc(C(F)C(F)(F)F)n1)c1cccs1 (stereo not shown) [drawing 230] |  | 100% | 100% | 100% | 10% | 100% | 
23 | CCc1nc(NC(C)=O)nc(NC(CC)c2cccs2)n1 (stereo not shown) [drawing 231] |  | 100% | 100% | 100% | 20% | 100% | 
24 | CCC(Nc1nc(NC(C)=O)nc(C(Cl)Cl)n1)c1cccs1 (stereo not shown) [drawing 232] |  | 100% | 100% | 100% | 0% | 100% | 
25 | CCC(Nc1nc(NC(C)=O)nc(C(C)Cl)n1)c1cccs1 (stereo not shown) [drawing 233] |  | 100% | 100% | 100% | 0% | 100% | 
26 | CC(Nc1nc(N)nc(C(Cl)Cl)n1)c1cccs1 (stereo not shown) [drawing 234] |  | 100% | 100% | 100% |  | 90% | 
27 | CCC(Nc1nc(NC(C)=O)nc(C(C)F)n1)c1cccs1 (stereo not shown) [drawing 235] |  | 100% | 100% | 100% |  | 100% | 
28 | CC(Cl)c1nc(N)nc(NC(C)c2cccs2)n1 (stereo not shown) [drawing 236] |  | 100% | 100% |  | 0% |  | degree of damage to the plants, Xanthium (Xanthium): 100%
29 | CCC(Nc1nc(N)nc(C(Cl)Cl)n1)c1cccs1 (stereo not shown) [drawing 237] |  | 100% |  | 100% | 10% | 100% | degree of damage to the plants, Xanthium (Xanthium): 80%
30 | CCC(Nc1nc(NC(C)=O)nc(C(C)(Cl)Cl)n1)c1cccs1 (stereo not shown) [drawing 238] |  | 100% |  | 100% |  | 100% | degree of damage to the plants, Xanthium (Xanthium): 100%
